Assays:
Test in all cases: relative viability (nuclei count vs DMSO), 5 days (fraction); higher = more cells survive
Adavosertib + Pemetrexed = compound: C=CCn1c(=O)c2cnc(Nc3ccc(N4CCN(C)CC4)cc3)nc2n1-c1cccc(C(C)(C)O)n1 [Adavosertib] + Nc1nc2[nH]cc(CCc3ccc(C(=O)N[C@@H](CCC(=O)O)C(=O)O)cc3)c2c(=O)[nH]1 [Pemetrexed] (partner 0.2 µM)
In short: (§1)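 Five library-drug doses in √10 steps were combined with a fixed anchor-drug dose, or a single drug was given alone, by pin tool to lung cancer cell lines in 1536-well plates the day after seeding. Nuclei were stained and counted after 5 days. Relative viability is the nuclei count in treated wells over that in vehicle wells, taken as the median of duplicate plates.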

Nelarabine + Decitabine = compound: COc1nc(N)nc2c1ncn2[C@@H]1O[C@H](CO)[C@@H](O)[C@@H]1O [Nelarabine] + Nc1ncn([C@H]2C[C@H](O)[C@@H](CO)O2)c(=O)n1 [Decitabine] (partner 2 µM)
In short: as §1

Nelarabine + Alpelisib = compound: COc1nc(N)nc2c1ncn2[C@@H]1O[C@H](CO)[C@@H](O)[C@@H]1O [Nelarabine] + Cc1nc(NC(=O)N2CCC[C@H]2C(N)=O)sc1-c1ccnc(C(C)(C)C(F)(F)F)c1 [Alpelisib] (partner 2 µM)
In short: as §1

[1] = compound: C=CCn1c(=O)c2cnc(Nc3ccc(N4CCN(C)CC4)cc3)nc2n1-c1cccc(C(C)(C)O)n1 [Adavosertib] + CC(=O)c1c(C)c2cnc(Nc3ccc(N4CCNCC4)cn3)nc2n(C2CCCC2)c1=O [Palbociclib] (partner 0.5 µM)
In short: as §1

Row | Cell Line | relative viability (Adavosertib + Pemetrexed; first compound 0.01 µM) | relative viability (Adavosertib + Pemetrexed; first compound 0.03162 µM) | relative viability (Adavosertib + Pemetrexed; first compound 0.1 µM) | relative viability (Adavosertib + Pemetrexed; first compound 0.3162 µM) | relative viability (Nelarabine + Decitabine; first compound 0.01 µM) | relative viability (Nelarabine + Decitabine; first compound 0.03162 µM) | relative viability (Nelarabine + Decitabine; first compound 0.1 µM) | relative viability (Nelarabine + Decitabine; first compound 0.3162 µM) | relative viability (Nelarabine + Decitabine; first compound 1 µM) | relative viability (Nelarabine + Alpelisib; first compound 0.01 µM) | relative viability (Nelarabine + Alpelisib; first compound 0.03162 µM) | relative viability (Nelarabine + Alpelisib; first compound 0.1 µM) | relative viability (Nelarabine + Alpelisib; first compound 0.3162 µM) | relative viability (Nelarabine + Alpelisib; first compound 1 µM) | relative viability ([1]; first compound 0.01 µM) | relative viability ([1]; first compound 0.03162 µM) | relative viability ([1]; first compound 0.1 µM) | relative viability ([1]; first compound 0.3162 µM)
1 | NCI-H1993 | 0.57 | 0.517 | 0.608 | 0.629 | 0.667 | 0.507 | 0.526 | 0.578 | 0.65 | 0.704 | 0.736 | 0.756 | 0.712 | 0.689 | 0.656 | 0.701 | 0.725 | 0.934
2 | LCLC-97TM1 | 0.214 | 0.171 | 0.17 | 0.159 | – | – | 0.274 | 0.279 | 0.241 | 0.277 | 0.211 | 0.216 | 0.212 | 0.26 | 0.25 | 0.213 | 0.237 | 0.294
3 | NCI-H2347 | 0.463 | 0.422 | 0.437 | 0.439 | 0.576 | 0.596 | 0.615 | 0.626 | 0.593 | 1.01 | 1.13 | 1.14 | 1.04 | 1.14 | 0.41 | 0.419 | 0.444 | 0.44
4 | LCLC-103H | 0.445 | 0.462 | 0.427 | 0.449 | 0.924 | 0.716 | 0.809 | 0.759 | 0.638 | 1.01 | 0.989 | 0.985 | 0.936 | 0.956 | 0.498 | 0.478 | 0.469 | 0.464
5 | EPLC-272H | 0.33 | 0.258 | 0.175 | 0.116 | 0.435 | 0.316 | 0.288 | 0.326 | 0.377 | 0.986 | 0.932 | 1.03 | 0.926 | 0.808 | 0.331 | 0.32 | 0.35 | 0.317
6 | NCI-H2170 | 0.282 | 0.248 | 0.271 | 0.218 | 0.473 | 0.546 | 0.484 | 0.47 | 0.427 | 0.944 | 0.748 | 0.81 | 0.882 | 0.937 | 0.403 | 0.419 | 0.399 | 0.36
7 | NCI-H1355 | 0.984 | 1.03 | 0.965 | 0.808 | 0.359 | 0.347 | 0.368 | 0.37 | 0.382 | 1.09 | 0.615 | 0.813 | 0.894 | 0.801 | 0.417 | 0.401 | 0.395 | 0.408

Reference: the supplement of paper PMC10307832
